Test results from patent EP4707277A1, “NOVEL HETEROCYCLIC AMINE DERIVATIVES AND PHARMACEUTICAL COMPOSITION COMPRISING SAME” (Daewoong Pharmaceutical Co., Ltd., priority 2023, dated 2024).
Like-named read-outs stand apart in the source and are kept apart here.

Columns and labels:
ITK = biological target: T1, ITK (Homo sapiens, UniProt Q08881); experiment: Inhibitory activity against ITK, ADP-Glo Kinase system (Promega); format: biochemical
T1 construct: purchased Signalchem I13-11G-10
T1 sequence (Q08881 1-620): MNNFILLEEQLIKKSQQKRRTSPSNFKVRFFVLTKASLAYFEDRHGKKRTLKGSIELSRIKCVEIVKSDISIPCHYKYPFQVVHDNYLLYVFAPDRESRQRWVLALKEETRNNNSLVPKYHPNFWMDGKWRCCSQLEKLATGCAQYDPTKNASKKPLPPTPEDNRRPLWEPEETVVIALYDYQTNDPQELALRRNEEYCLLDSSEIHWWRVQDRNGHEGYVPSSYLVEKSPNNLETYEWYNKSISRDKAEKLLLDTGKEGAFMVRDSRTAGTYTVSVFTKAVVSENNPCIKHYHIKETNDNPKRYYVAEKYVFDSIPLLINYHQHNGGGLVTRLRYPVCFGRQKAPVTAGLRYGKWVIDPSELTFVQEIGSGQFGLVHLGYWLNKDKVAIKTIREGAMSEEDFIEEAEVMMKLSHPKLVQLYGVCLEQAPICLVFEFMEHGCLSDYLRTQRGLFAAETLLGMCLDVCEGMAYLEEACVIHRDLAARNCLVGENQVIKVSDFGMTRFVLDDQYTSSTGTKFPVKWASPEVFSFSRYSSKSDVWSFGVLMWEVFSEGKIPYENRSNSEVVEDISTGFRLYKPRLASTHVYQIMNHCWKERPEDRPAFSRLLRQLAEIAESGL
Protocol: (§1) Inhibitory activities against BTK and ITK were measured for the compounds prepared in the above Examples as follows.
(§2) The inhibitory activities against BTK and ITK were evaluated using 'ADP-Glo™ Kinase system' (Promega Corporation). In the case of this evaluation method, activation was measured by quantifying the amount of ADP produced during the kinase reaction, which was utilized to measure the inhibitory activities against BTK and ITK.
(§3) Specifically, the inhibitory activities against BTK and ITK were measured using BTK kinase (Signalchem, B10-10H), ITK kinase (Signalchem, I13-11G-10), and ADP-Glo kinase assay kit (Promega, V9102). Recombinant purified human BTK and ITK were diluted with 1 x kinase reaction buffer (40 mM Tris-Cl, pH 7.5, 20 mM MgCl2, 0.1 mg/mL BSA, 2 mM MnCl2 and 50 uM DTT) and added to a 96 well plate (ITK: final concentration of 4 ng per reaction/BTK: final concentration of 10 ng per reaction). The compounds prepared in the previous Examples were treated so as to be finally a 1% DMSO aqueous solution, and a substrate cocktail containing ATP (1mM or Km ATP (BTK: 10 uM /ITK: 25uM)) and 0.2 ug/ul of Poly (Glu4,Tyr1) peptide (BTK and ITK final concentration) in the total 25 uL reactants was added to a 96-well plate to initiate enzymatic reaction. After incubation (30°C) for 1 hour, equivalent volume (25 uL per reaction) of ADP Glo was added, and incubated (30°C) for 40 minutes at room temperature. Then, a kinase detection reagent (45 uL per reaction) was added, and incubated (30°C) for 30 minutes at room temperature. The kinase activity was measured by chemiluminescence according to the instructions of ADP Glo kinase assay kit, and the inhibitory activity of the compounds according to the present disclosure was calculated. For the analysis of the results of each compound, Microsoft Excel was used, and IC50 values were calculated by GraphPad Prism software.

BTK = biological target: T2, BTK (Homo sapiens, UniProt Q06187); experiment: Inhibitory activity against BTK, ADP-Glo Kinase system (Promega); format: biochemical
T2 construct: purchased Signalchem B10-10H
Protocol: as §1, §2, §3

[1] = 1mM ATP, read-out: ITK IC50(nM) 1mM ATP
[2] = 1mM ATP, read-out: BTK IC50(nM) 1mM ATP
[3] = Km ATP (ITK: 25uM), read-out: ITK IC50(nM) Km ATP
[4] = Km ATP (BTK: 10 uM), read-out: BTK IC50(nM) Km ATP

T2 sequence (Q06187 whole entry): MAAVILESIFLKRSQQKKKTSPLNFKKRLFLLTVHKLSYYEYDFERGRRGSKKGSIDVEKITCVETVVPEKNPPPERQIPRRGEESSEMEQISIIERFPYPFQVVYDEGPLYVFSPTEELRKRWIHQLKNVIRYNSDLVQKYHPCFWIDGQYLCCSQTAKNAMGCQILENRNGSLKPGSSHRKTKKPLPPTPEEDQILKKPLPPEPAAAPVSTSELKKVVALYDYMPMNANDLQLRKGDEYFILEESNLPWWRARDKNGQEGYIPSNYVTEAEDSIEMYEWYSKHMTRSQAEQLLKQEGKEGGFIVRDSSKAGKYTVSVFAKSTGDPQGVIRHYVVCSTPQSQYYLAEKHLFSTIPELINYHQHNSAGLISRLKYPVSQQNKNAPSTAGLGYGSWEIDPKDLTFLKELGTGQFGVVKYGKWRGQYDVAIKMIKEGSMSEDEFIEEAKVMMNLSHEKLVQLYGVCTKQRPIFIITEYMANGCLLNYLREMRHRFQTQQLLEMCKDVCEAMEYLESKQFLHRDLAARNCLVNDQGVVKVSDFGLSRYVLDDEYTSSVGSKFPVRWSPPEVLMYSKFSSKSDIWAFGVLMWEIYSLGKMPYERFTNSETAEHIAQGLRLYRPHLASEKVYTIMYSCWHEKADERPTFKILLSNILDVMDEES

| IC50 (ITK; [1]) [nM] | IC50 (BTK; [2]) [nM] | IC50 (ITK; [3]) [nM] | IC50 (BTK; [4]) [nM] | SMILES |
| --- | --- | --- | --- | --- |
| ≤ 20 | ≤ 20 |  |  | C=CC(=O)N1C2C=C(c3nc(Nc4ncc(C)s4)cc4c3ccn4CC3CC3)CC1CC2 (stereo not shown) [Example 39, 1-(3-(1-(cyclopropylmethyl)-6-((5-methylthiazol-2-yl)amino)-1H-pyrrolo[3,2-c]pyridin-4-yl)-8-azabicyclo[3.2.1]oct-2-en-8-yl)prop-2-en-1-one] |
|  |  | > 500 | 100 to 500 | C=CC(=O)N1CC=C(c2nc(Nc3ncc[nH]3)cc3c2ccn3C)CC1 [Example 40, 1-(4-(6-((1H-imidazol-2-yl)amino)-1-methyl-1H-pyrrolo[3,2-c]pyridin-4-yl)-3,6-dihydropyridin-1(2H)-yl)prop-2-en-1-one] |
|  |  | > 500 | 20 to 100 | C=CC(=O)N1CC=C(c2nc(Nc3nnc(C)s3)cc3c2ccn3C(C)C)CC1 [Example 41, 1-(4-(1-isopropyl-6-((5-methyl-1,3,4-thiadiazol-2-yl)amino)-1H-pyrrolo[3,2-c]pyridin-4-yl)-3,6-dihydropyridin-1(2H)-yl)prop-2-en-1-one] |
|  |  | > 500 | > 500 | C=CC(=O)N1CC=C(c2nc(Nc3nc(C)cs3)cc3c2ccn3C(C)C)CC1 [Example 42, 1-(4-(1-isopropyl-6-((4-methylthiazol-2-yl)amino)-1H-pyrrolo[3,2-c]pyridin-4-yl)-3,6-dihydropyridin-1(2H)-yl)prop-2-en-1-one] |
| 20 to 100 | ≤ 20 |  |  | C=CC(=O)N1CC=C(c2nc(Nc3ccncn3)cc3c2ccn3C(C)C)CC1 [Example 43, 1-(4-(1-isopropyl-6-(pyrimidin-4-ylamino)-1H-pyrrolo[3,2-c]pyridin-4-yl)-3,6-dihydropyridin-1(2H)-yl)prop-2-en-1-one] |
| 100 to 500 | 20 to 100 |  |  | C=CC(=O)N1CC=C(c2nc(Nc3cc(C)ncn3)cc3c2ccn3C(C)C)CC1 [Example 44, 1-(4-(1-isopropyl-6-((6-methylpyrimidin-4-yl)amino)-1H-pyrrolo[3,2-c]pyridin-4-yl)-3,6-dihydropyridin-1(2H)-yl)prop-2-en-1-one] |
| 100 to 500 | 20 to 100 |  |  | C=CC(=O)N1CC=C(c2nc(Nc3cc(C(F)(F)F)ncn3)cc3c2ccn3C(C)C)CC1 [Example 45, 1-(4-(1-isopropyl-6-((6-(trifluoromethyl)pyrimidin-4-yl)amino)-1H-pyrrolo[3,2-c]pyridin-4-yl)-3,6-dihydropyridin-1(2H)-yl)prop-2-en-1-one] |
| 100 to 500 | ≤ 20 |  |  | C=CC(=O)N1CC=C(c2nc(Nc3cc(OC)ncn3)cc3c2ccn3C(C)C)CC1 [Example 46, 1-(4-(1-isopropyl-6-((6-methoxypyrimidin-4-yl)amino)-1H-pyrrolo[3,2-c]pyridin-4-yl)-3,6-dihydropyridin-1(2H)-yl)prop-2-en-1-one] |
| 20 to 100 | ≤ 20 |  |  | C=CC(=O)N1CC=C(c2nc(Nc3cc(F)ccn3)cc3c2ccn3C(C)C)CC1 [Example 47, 1-(4-(6-((4-fluoropyridin-2-yl)amino)-1-isopropyl-1H-pyrrolo[3,2-c]pyridin-4-yl)-3,6-dihydropyridin-1(2H)-yl)prop-2-en-1-one] |
| 20 to 100 | 20 to 100 |  |  | C=CC(=O)N1CC=C(c2nc(Nc3cc(C(F)(F)F)ccn3)cc3c2ccn3C(C)C)CC1 [Example 48, 1-(4-(1-isopropyl-6-((4-(trifluoromethyl)pyridin-2-yl)amino)-1H-pyrrolo[3,2-c]pyridin-4-yl)-3,6-dihydropyridin-1(2H)-yl)prop-2-en-1-one] |
| 100 to 500 | 100 to 500 | 20 to 100 | 20 to 100 | C=CC(=O)N1CC=C(c2nc(Nc3cc(C)ccn3)cc3c2ccn3C(C)C)CC1 [Example 49, 1-(4-(1-isopropyl-6-((4-methylpyridin-2-yl)amino)-1H-pyrrolo[3,2-c]pyridin-4-yl)-3,6-dihydropyridin-1(2H)-yl)prop-2-en-1-one] |
|  |  | 20 to 100 | ≤ 20 | C=CC(=O)Nc1cccc(-c2nc(Nc3ncc(C)s3)cc3c2ccn3C)c1 [Example 50, N-(3-(1-methyl-6-((5-methylthiazol-2-yl)amino)-1H-pyrrolo[3,2-c]pyridin-4-yl)phenyl)acrylamide] |
|  |  | ≤ 20 | ≤ 20 | C=CC(=O)Nc1cccc(-c2nc(Nc3ncc(C)s3)cc3c2ccn3C)c1F [Example 51, N-(2-fluoro-3-(1-methyl-6-((5-methylthiazol-2-yl)amino)-1H-pyrrolo[3,2-c]pyridin-4-yl)phenyl)acrylamide] |
|  |  | ≤ 20 | ≤ 20 | C=CC(=O)Nc1cccc(-c2nc(Nc3ncc(C)s3)cc3c2ccn3C)c1OC [Example 52, N-(2-methoxy-3-(1-methyl-6-((5-methylthiazol-2-yl)amino)-1H-pyrrolo[3,2-c]pyridin-4-yl)phenyl)acrylamide] |
|  |  | 100 to 500 | ≤ 20 | C=CC(=O)Nc1cc(C)cc(-c2nc(Nc3ncc(C)s3)cc3c2ccn3C)c1 [Example 53, N-(3-methyl-5-(1-methyl-6-((5-methylthiazol-2-yl)amino)-1H-pyrrolo[3,2-c]pyridin-4-yl)phenyl)acrylamide] |
|  |  | 20 to 100 | ≤ 20 | C=CC(=O)Nc1cc(-c2nc(Nc3ncc(C)s3)cc3c2ccn3C)ccc1F [Example 54, N-(2-fluoro-5-(1-methyl-6-((5-methylthiazol-2-yl)amino)-1H-pyrrolo[3,2-c]pyridin-4-yl)phenyl)acrylamide] |
|  |  | ≤ 20 | ≤ 20 | C=CC(=O)Nc1cc(-c2nc(Nc3ncc(C)s3)cc3c2ccn3C)ccc1C [Example 55, N-(2-methyl-5-(1-methyl-6-((5-methylthiazol-2-yl)amino)-1H-pyrrolo[3,2-c]pyridin-4-yl)phenyl)acrylamide] |
| > 500 | ≤ 20 | ≤ 20 | ≤ 20 | C=CC(=O)Nc1c(C)ccc(-c2nc(Nc3ncc(C)s3)cc3c2ccn3C)c1C [Example 56, N-(2,6-dimethyl-3-(1-methyl-6-((5-methylthiazol-2-yl)amino)-1H-pyrrolo[3,2-c]pyridin-4-yl)phenyl)acrylamide] |
|  |  | ≤ 20 | ≤ 20 | C=CC(=O)Nc1c(F)ccc(-c2nc(Nc3ncc(C)s3)cc3c2ccn3C)c1F [Example 57, N-(2,6-difluoro-3-(1-methyl-6-((5-methylthiazol-2-yl)amino)-1H-pyrrolo[3,2-c]pyridin-4-yl)phenyl)acrylamide] |
| ≤ 20 | ≤ 20 |  |  | C=CC(=O)Nc1cccc(-c2nc(Nc3ncc(C)s3)cc3c2ccn3C(C)C)c1C [Example 58, N-(3-(1-isopropyl-6-((5-methylthiazol-2-yl)amino)-1H-pyrrolo[3,2-c]pyridin-4-yl)-2-methylphenyl)acrylamide] |
| ≤ 20 | ≤ 20 |  |  | C=CC(=O)Nc1ccc(F)c(-c2nc(Nc3ncc(C)s3)cc3c2ccn3C(C)C)c1 [Example 59, N-(4-fluoro-3-(1-isopropyl-6-((5-methylthiazol-2-yl)amino)-1H-pyrrolo[3,2-c]pyridin-4-yl)phenyl)acrylamide] |
| ≤ 20 | ≤ 20 | ≤ 20 | ≤ 20 | C=CC(=O)Nc1cc(-c2nc(Nc3ncc(C)s3)cc3c2ccn3C(C)C)c(F)cc1F [Example 60, N-(2,4-difluoro-5-(1-isopropyl-6-((5-methzylthiazol-2-yl)amino)-1H-pyrrolo[3,2-c]pyridin-4-yl)phenyl)acrylamide] |
|  |  | ≤ 20 | ≤ 20 | C=CC(=O)Nc1ccc(F)c(-c2nc(Nc3ncc(C)s3)cc3c2ccn3CC2CC2)c1 [Example 61, N-(3-(1-(cyclopropylmethyl)-6-((5-methylthiazol-2-yl)amino)-1H-pyrrolo[3,2-c]pyridin-4-yl)-4-fluorophenyl)acrylamide] |
